These results are taken from patent US20250011318A1 (ARCUS BIOSCIENCES, INC., priority 2023, published 2025).

One assay deals with Jurkat cells. The assay is described as follows: IL-2 secretion assay in CD3/CD28-activated Jurkat cells (AlphaLISA). The following applies: CD3/CD28 T Cell Activator, 24 h, IL-2 AlphaLISA. The format is cell-based, human. The method, boiled down: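 Jurkat cells (50,000/well) preincubated 1 h at 37° C with compound (16-point 1:2 series, final 10 μM to 300 pM) in Opti-MEM, then stimulated with CD3/CD28 activator for 24 h. Supernatant IL-2 read by AlphaLISA; EC50 from 4-parameter logistic fit.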
A general note: In Alpha technology, singlet oxygen from a donor bead excites a nearby acceptor bead.

For the next assay, the target named is T1, Cbl-b (Homo sapiens, UniProt Q13191).
T1 construct: biotin (biotinylated)
The assay is described as follows: Cbl-b probe displacement HTRF binding assay. The settings on record: 0.4 nM biotinylated Cbl-b, 150 nM BODIPY probe. The method, boiled down: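 Biotinylated Cbl-b (0.4 nM) preincubated 60 min at RT with compound (20-point 1:2 series, 10 μM top), then 150 nM BODIPY probe for 15 min, then streptavidin-terbium detection. Buffer: 20 mM Hepes, 150 mM NaCl, 0.01% Triton X-100, 0.5 mM TCEP, 0.01% BSA. Loss of HTRF signal gave IC50 via four-parameter fit.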

T1 sequence (Q13191 whole entry, species assumed): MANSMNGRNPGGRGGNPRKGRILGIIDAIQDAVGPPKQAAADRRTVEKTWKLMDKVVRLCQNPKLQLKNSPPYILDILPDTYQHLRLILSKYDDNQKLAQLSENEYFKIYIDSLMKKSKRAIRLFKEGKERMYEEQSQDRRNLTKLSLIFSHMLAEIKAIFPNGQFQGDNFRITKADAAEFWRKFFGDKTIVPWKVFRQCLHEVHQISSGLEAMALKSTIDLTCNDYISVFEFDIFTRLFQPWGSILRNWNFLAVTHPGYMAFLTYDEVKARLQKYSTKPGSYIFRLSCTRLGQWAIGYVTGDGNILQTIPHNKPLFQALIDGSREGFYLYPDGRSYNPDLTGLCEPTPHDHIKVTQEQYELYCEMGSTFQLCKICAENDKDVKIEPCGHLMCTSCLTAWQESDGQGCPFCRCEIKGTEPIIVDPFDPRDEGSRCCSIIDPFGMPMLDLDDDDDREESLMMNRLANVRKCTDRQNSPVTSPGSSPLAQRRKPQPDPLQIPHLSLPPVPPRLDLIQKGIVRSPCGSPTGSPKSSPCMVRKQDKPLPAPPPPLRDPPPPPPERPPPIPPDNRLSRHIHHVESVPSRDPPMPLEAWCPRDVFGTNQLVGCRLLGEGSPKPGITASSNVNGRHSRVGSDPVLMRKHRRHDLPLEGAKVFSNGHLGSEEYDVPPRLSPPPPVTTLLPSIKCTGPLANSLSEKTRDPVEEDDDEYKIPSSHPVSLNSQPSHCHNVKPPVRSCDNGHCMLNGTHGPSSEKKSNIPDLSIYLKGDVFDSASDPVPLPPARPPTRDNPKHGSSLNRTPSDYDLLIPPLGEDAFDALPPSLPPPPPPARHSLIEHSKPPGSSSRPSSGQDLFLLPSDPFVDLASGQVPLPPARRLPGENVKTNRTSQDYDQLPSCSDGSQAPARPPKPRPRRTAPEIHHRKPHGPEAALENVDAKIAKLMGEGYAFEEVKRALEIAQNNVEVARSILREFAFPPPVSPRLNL

With `COCCN(C)Cc1cc2ncn(-c3cc(-c4ccc(F)cc4-c4nc(C#N)cn4C)cc(C4CC4)n3)c(=O)c2[nH]1` [Example 108, 2-{2-[6-cyclopropyl-2-(2-{[(2-methoxyethyl)-N-methylamino]methyl}-7-oxo-1,6-dihydro-1,4,6-triaza-6-indenyl)-4-pyridyl]-5-fluorophenyl}-1-methyl-4-imidazolecarbonitrile], in the assay with Jurkat cells (Homo sapiens), the EC50 (as a rule, the concentration giving half of the maximal effect) was < 100 nM. For the same compound, at Cbl-b, the half-inhibitory concentration (IC50) (usually the midpoint of a concentration-inhibition curve) was < 100 nM.

For `COC1CN(Cc2cc3ncn(-c4cc(-c5ccc(F)cc5-c5nc(C#N)cn5C)cc(C5CC5)n4)c(=O)c3[nH]2)C1` [Example 109, 2-[2-(6-cyclopropyl-2-{2-[(3-methoxy-1-azetidinyl)methyl]-7-oxo-1,6-dihydro-1,4,6-triaza-6-indenyl}-4-pyridyl)-5-fluorophenyl]-1-methyl-4-imidazolecarbonitrile], in the assay with Jurkat cells (Homo sapiens), the 50% effective concentration (EC50) was 100 to 1000 nM. Besides, the half-maximal inhibitory concentration (IC50) on Cbl-b was < 100 nM.

With `COCCNCc1cc2c(C3CC3)cn(-c3cc(-c4ccc(F)cc4-c4nc(C#N)cn4C)cc(C4CC4)n3)c(=O)c2[nH]1` [Example 110, 2-[2-[2-cyclopropyl-6-[4-cyclopropyl-2-[(2-methoxyethylamino)methyl]-7-oxo-1H-pyrrolo[2,3-c]pyridin-6-yl]pyridin-4-yl]-5-fluorophenyl]-1-methylimidazole-4-carbonitrile], the concentration for a half-maximal effect (EC50) in the assay on Jurkat cells (Homo sapiens) is < 100 nM. Also, the IC50 on Cbl-b is < 100 nM.

Take `COC[C@H](C)NCc1cc2ncn(-c3cc(-c4ccc(F)cc4-c4nc(C#N)cn4C)cc(C4CC4)n3)c(=O)c2[nH]1` [Example 111, 2-[2-[2-cyclopropyl-6-[6-[[[(2S)-1-methoxypropan-2-yl]amino]methyl]-4-oxo-5H-pyrrolo[3,2-d]pyrimidin-3-yl]pyridin-4-yl]-5-fluorophenyl]-1-methylimidazole-4-carbonitrile]: the EC50 with Jurkat cells (Homo sapiens) is < 100 nM. The half-maximal inhibitory concentration (IC50) at Cbl-b is < 100 nM.

As for `Cn1cc(C#N)nc1-c1cc(F)ccc1-c1cc(C2CC2)nc(-n2cnc3cc(CNCCC(F)(F)F)[nH]c3c2=O)c1` [Example 112, 2-[2-[2-cyclopropyl-6-[4-oxo-6-[(3,3,3-trifluoropropylamino)methyl]-5H-pyrrolo[3,2-d]pyrimidin-3-yl]pyridin-4-yl]-5-fluorophenyl]-1-methylimidazole-4-carbonitrile], in the assay with Jurkat cells (Homo sapiens), the EC50 was < 100 nM. Besides, the IC50 at Cbl-b is < 100 nM.

On to `Cn1cc(C#N)nc1-c1cc(C#N)ccc1-c1cc(C2CC2)nc(-n2cnc3cc(CNC4(C)CCC4)[nH]c3c2=O)c1` [Example 115, 2-[5-cyano-2-[2-cyclopropyl-6-[6-[[(1-methylcyclobutyl)amino]methyl]-4-oxo-5H-pyrrolo[3,2-d]pyrimidin-3-yl]pyridin-4-yl]phenyl]-1-methylimidazole-4-carbonitrile], for which the EC50 in the assay with Jurkat cells (Homo sapiens) is < 100 nM. The concentration for half-maximal inhibition (IC50) at Cbl-b was < 100 nM.

As to `COCCNCc1cc2ncn(-c3cc(-c4ccc(C#N)cc4-c4nc(C#N)cn4C)cc(C4CC4)n3)c(=O)c2[nH]1` [Example 116, 2-[5-cyano-2-[2-cyclopropyl-6-[6-[(2-methoxyethylamino)methyl]-4-oxo-5H-pyrrolo[3,2-d]pyrimidin-3-yl]pyridin-4-yl]phenyl]-1-methylimidazole-4-carbonitrilef], the concentration giving a half-maximal response (EC50) in the assay with Jurkat cells (Homo sapiens) was < 100 nM. The IC50 on Cbl-b was < 100 nM.

In the assay on Jurkat cells (Homo sapiens), `C[C@H]1CCCN(Cc2cc3c(C4CC4)cn(-c4cc(-c5ccc(C#N)cc5-c5nc(C(F)(F)F)cn5C)cc(C5CC5)n4)c(=O)c3[nH]2)C1` [Example 117, 4-[2-(2-{[(S)-3-methyl-1-piperidyl]methyl}-4-cyclopropyl-7-oxo-1,6-dihydro-1,6-diaza-6-indenyl)-6-cyclopropyl-4-pyridyl]-3-[1-methyl-4-(trifluoromethyl)-2-imidazolyl]benzonitrile] returned a 50% effective concentration (EC50) of 100 to 1000 nM. For the same compound, on Cbl-b, the IC50 is < 100 nM.

As for `COCCNCc1cc2ncn(-c3cc(-c4ccc(F)cc4-c4ncnn4C)cc(C4CC4)n3)c(=O)c2[nH]1` [Example 118, 3-[6-cyclopropyl-4-[4-fluoro-2-(2-methyl-1,2,4-triazol-3-yl)phenyl]-pyridin-2-yl]-6-[(2-methoxyethylamino)methyl]-5H-pyrrolo[3,2-d]pyrimidin-4-one], in the assay with Jurkat cells (Homo sapiens), the half-maximal effective concentration (EC50) lay within 100 to 1000 nM. Besides, the 50% inhibitory concentration (IC50) at Cbl-b was < 100 nM.

Turning to `C[C@H]1CCCN(Cc2cc3c(C4CC4)cn(-c4cc(-c5ccc(F)cc5-c5ncnn5C)cc(C5CC5)n4)c(=O)c3[nH]2)C1` [Example 119, 4-Cyclopropyl-6-[6-cyclopropyl-4-[4-fluoro-2-(2-methyl-1,2,4-triazol-3-yl)phenyl]pyridin-2-yl]-2-[[(3S)-3-methylpiperidin-1-yl]methyl]-1H-pyrrolo[2,3-c]pyridin-7-one], the EC50 in the assay on Jurkat cells (Homo sapiens) lay within 100 to 1000 nM. Also, the half-maximal inhibitory concentration (IC50) at Cbl-b was < 100 nM.

In the case of `Cn1ncnc1-c1cc(F)ccc1-c1cc(C2CC2)nc(-n2cnc3cc(CNC4(C)CCC4)[nH]c3c2=O)c1` [Example 120, 3-[6-cyclopropyl-4-[4-fluoro-2-(2-methyl-1,2,4-triazol-3-yl)phenyl]-pyridin-2-yl]-6-[[(1-methylcyclobutyl)amino]methyl]-5H-pyrrolo[3,2-d]pyrimidin-4-one], the EC50 with Jurkat cells (Homo sapiens) was < 100 nM. Besides, the half-maximal inhibitory concentration (IC50) at Cbl-b is < 100 nM.

In turn, `Cn1cnnc1-c1cc(F)ccc1-c1cc(C2CC2)nc(-n2cnc3cc(CC4CCCC4)[nH]c3c2=O)c1` [Example 121, 6-(cyclopentylmethyl)-3-[6-cyclopropyl-4-[4-fluoro-2-(4-methyl-1,2,4-triazol-3-yl)phenyl]pyridin-2-yl]-5H-pyrrolo[3,2-d]pyrimidin-4-one] gave an EC50 with Jurkat cells (Homo sapiens) of 100 to 1000 nM. Further, the IC50 at Cbl-b is < 100 nM.

`Cn1cnnc1-c1cc(F)ccc1-c1cc(C2CC2)nc(-n2cnc3cc(CC4CCOCC4)[nH]c3c2=O)c1` [Example 122, 3-[6-cyclopropyl-4-[4-fluoro-2-(4-methyl-1,2,4-triazol-3-yl)phenyl]pyridin-2-yl]-6-(oxan-4-ylmethyl)-5H-pyrrolo[3,2-d]pyrimidin-4-one] gave an EC50 with Jurkat cells (Homo sapiens) of 100 to 1000 nM. Further, the IC50 on Cbl-b was < 100 nM.

As for `Cn1cnnc1-c1cc(F)ccc1-c1cc(C2CC2)nc(-n2cnc3cc(CC4COC4)[nH]c3c2=O)c1` [Example 123, 3-[6-cyclopropyl-4-[4-fluoro-2-(4-methyl-1,2,4-triazol-3-yl)phenyl]pyridin-2-yl]-6-(oxetan-3-ylmethyl)-5H-pyrrolo[3,2-d]pyrimidin-4-one], the 50% effective concentration (EC50) in the assay with Jurkat cells (Homo sapiens) fell in the range of 100 to 1000 nM. Further, at Cbl-b, the IC50 is < 100 nM.

In the assay on Jurkat cells (Homo sapiens), `Cc1cc2ncn(-c3cc(-c4ccc(F)cc4-c4nncn4C)cc(C4CC4)n3)c(=O)c2[nH]1` [Example 124, 3-[6-cyclopropyl-4-[4-fluoro-2-(4-methyl-1,2,4-triazol-3-yl)phenyl]-pyridin-2-yl]-6-methyl-5H-pyrrolo[3,2-d]pyrimidin-4-one] came in with an EC50 of 100 to 1000 nM. In addition, the IC50 on Cbl-b is < 100 nM.

`Cn1cnnc1-c1cc(F)ccc1-c1cc(C2CC2)nc(-n2cnc3cc(C4CCOC4)[nH]c3c2=O)c1` (centres unmarked) [Example 125, 3-[6-cyclopropyl-4-[4-fluoro-2-(4-methyl-1,2,4-triazol-3-yl)phenyl]-pyridin-2-yl]-6-(oxolan-3-yl)-5H-pyrrolo[3,2-d]pyrimidin-4-one] returned an EC50 in the assay on Jurkat cells (Homo sapiens) of 100 to 1000 nM. Also, the IC50 at Cbl-b is < 100 nM.

With `Cn1cnnc1-c1cc(F)ccc1-c1cc(C2CC2)nc(-n2cnc3cc(C(O)C4CCCC4)[nH]c3c2=O)c1` (centres unmarked) [Example 126, 6-[cyclopentyl(hydroxy)methyl]-3-[6-cyclopropyl-4-[4-fluoro-2-(4-methyl-1,2,4-triazol-3-yl)phenyl]pyridin-2-yl]-5H-pyrrolo[3,2-d]pyrimidin-4-one], in the assay on Jurkat cells (Homo sapiens), the 50% effective concentration (EC50) is < 100 nM. Further, the half-maximal inhibitory concentration (IC50) on Cbl-b is < 100 nM.

As to `Cn1cnnc1-c1cc(F)ccc1-c1cc(C2CC2)nc(-n2cnc3cc(C(F)C4CCCC4)[nH]c3c2=O)c1` (centres unmarked) [Example 127, 6-[cyclopentyl(fluoro)methyl]-3-[6-cyclopropyl-4-[4-fluoro-2-(4-methyl-1,2,4-triazol-3-yl)phenyl]pyridin-2-yl]-5H-pyrrolo[3,2-d]pyrimidin-4-one], the EC50 in the assay on Jurkat cells (Homo sapiens) is < 100 nM. In addition, the IC50 on Cbl-b is < 100 nM.

Regarding `Cn1cnnc1-c1cc(F)ccc1-c1cc(C2CC2)nc(-n2cnc3cc(C(F)F)[nH]c3c2=O)c1` [Example 128, 3-[6-cyclopropyl-4-[4-fluoro-2-(4-methyl-1,2,4-triazol-3-yl)phenyl]-pyridin-2-yl]-6-(difluoromethyl)-5H-pyrrolo[3,2-d]pyrimidin-4-one], in the assay with Jurkat cells (Homo sapiens), the EC50 was 100 to 1000 nM. The IC50 on Cbl-b was < 100 nM.

As to `COCNCC1=CC2C(N1)C(=O)N(c1cc(-c3ccc(F)cc3-n3nncc3C)cc(C3CC3)n1)CC2C(F)(F)F` (centres unmarked) [Example 130, 6-[6-cyclopropyl-4-[4-fluoro-2-(5-methyltriazol-1-yl)phenyl]pyridin-2-yl]-2-[(methoxymethylamino)methyl]-4-(trifluoromethyl)-3a,4,5,7a-tetrahydro-1H-pyrrolo[2,3-c]pyridin-7-one], the EC50 with Jurkat cells was < 100 nM. For the same compound, the IC50 at Cbl-b is < 100 nM.

For `COCCNCc1cc2c(C(F)(F)F)cn(-c3cc(-c4ccc(F)cc4-n4cc(C)nn4)cc(C4CC4)n3)c(=O)c2[nH]1` [Example 131, 6-[6-cyclopropyl-4-[4-fluoro-2-(4-methyltriazol-1-yl)phenyl]pyridin-2-yl]-2-[(2-methoxyethylamino)methyl]-4-(trifluoromethyl)-1H-pyrrolo[2,3-c]pyridin-7-one], the half-maximal effective concentration (EC50) in the assay on Jurkat cells (Homo sapiens) is < 100 nM. The IC50 on Cbl-b was < 100 nM.

With `COCCNCc1cc2ncn(-c3cc(-c4ccc(F)cc4-n4nncc4C)cc(C4CC4)n3)c(=O)c2[nH]1` [Example 132], the 50% effective concentration (EC50) with Jurkat cells (Homo sapiens) is < 100 nM. Further, at Cbl-b, the half-inhibitory concentration (IC50) is < 100 nM.
